Experimental data: ChEMBL document CHEMBL3769303, “Discovery of membrane active benzimidazole quinolones-based topoisomerase inhibitors as potential DNA-binding antimicrobial agents” (Eur J Med Chem, 2016)
Values after ≈ are worked out from the molar mass of the structure shown.

Experiments:
Assay type in all cases: functional
[1] = Antibacterial activity against Bacillus proteus ATCC 13315 by micro broth dilution method
Escherichia coli [2] = test: Antibacterial activity against Escherichia coli DH52 by micro broth dilution method
Staphylococcus aureus [3] = test: Antibacterial activity against methicillin-resistant Staphylococcus aureus N315 by micro broth dilution method
Shigella dysenteriae = test: Antibacterial activity against Shigella dysenteriae by micro broth dilution method
Bacillus spizizenii = test: Antibacterial activity against Bacillus subtilis ATCC 6633 by micro broth dilution method
Pseudomonas aeruginosa = test: Antibacterial activity against Pseudomonas aeruginosa ATCC 27853 by micro broth dilution method
Micrococcus luteus = test: Antibacterial activity against Micrococcus luteus ATCC 4698 by micro broth dilution method; details: NCTC 2665
Candida albicans = test: Antifungal activity against Candida albicans ATCC 10231 after 24 hrs by micro broth dilution method; details: ATCC 10231, 24 h
Salmonella enterica = test: Antibacterial activity against Salmonella enterica ATCC 14028 by micro broth dilution method
Saccharomyces cerevisiae = test: Antifungal activity against Saccharomyces cerevisiae ATCC 9763 after 24 hrs by micro broth dilution method; details: ATCC 9763, 24 h
Aspergillus flavus = test: Antifungal activity against Aspergillus flavus ATCC 204304 after 24 hrs by micro broth dilution method; details: ATCC 204304, 24 h
Cyberlindnera jadinii = test: Antifungal activity against Candida utilis ATCC 9950 after 24 hrs by micro broth dilution method; details: Williopsis jadinii, ATCC 9950, 24 h
Staphylococcus aureus [4] = test: Antibacterial activity against Staphylococcus aureus ATCC 25923 by micro broth dilution method
[5] = Antifungal activity against Candida mycoderma ATCC 9888 after 24 hrs by micro broth dilution method; details: Candida vini
Escherichia coli [6] = test: Antibacterial activity against Escherichia coli JM109 by micro broth dilution method

SMILES | MIC [1] [µg/mL] | MIC (Escherichia coli [2]) [µg/mL] | MIC (Staphylococcus aureus [3]) [µg/mL] | MIC (Shigella dysenteriae) [µg/mL] | MIC (Bacillus spizizenii) [µg/mL] | MIC (Pseudomonas aeruginosa) [µg/mL] | MIC (Micrococcus luteus) [µg/mL] | MIC80 (Candida albicans) [µg/mL] | MIC (Salmonella enterica) [µg/mL] | MIC80 (Saccharomyces cerevisiae) [µg/mL] | MIC80 (Aspergillus flavus) [µg/mL] | MIC80 (Cyberlindnera jadinii) [µg/mL] | MIC (Staphylococcus aureus [4]) [µg/mL] | MIC80 [5] [µg/mL] | MIC (Escherichia coli [6]) [µg/mL]
O=C(O)c1cn(C2CC2)c2cc(N3CCN(Cc4nc5ccc([N+](=O)[O-])cc5[nH]4)CC3)c(F)cc2c1=O | 4 (≈ 7.9 µM) | 4 (≈ 7.9 µM) | 2 (≈ 3.95 µM) | 4 (≈ 7.9 µM) | 8 (≈ 15.8 µM) | 0.5 (≈ 0.987 µM) | 8 (≈ 15.8 µM) | 2 (≈ 3.95 µM) | 4 (≈ 7.9 µM) | 4 (≈ 7.9 µM) | 4 (≈ 7.9 µM) | 4 (≈ 7.9 µM) | 16 (≈ 31.6 µM) | 8 (≈ 15.8 µM) | 8 (≈ 15.8 µM)
CCCCCCn1c(CN2CCN(c3cc4c(cc3F)c(=O)c(C(=O)O)cn4C3CC3)CC2)nc2ccccc21 | 16 (≈ 29.3 µM) | 16 (≈ 29.3 µM) | 128 (≈ 235 µM) | 64 (≈ 117 µM) | 16 (≈ 29.3 µM) | 16 (≈ 29.3 µM) | 32 (≈ 58.6 µM) | 16 (≈ 29.3 µM) | 16 (≈ 29.3 µM) | 128 (≈ 235 µM) | 128 (≈ 235 µM) | 32 (≈ 58.6 µM) | 256 (≈ 469 µM) | 8 (≈ 14.7 µM) | 64 (≈ 117 µM)
CCCCCn1c(CN2CCN(c3cc4c(cc3F)c(=O)c(C(=O)O)cn4CC)CC2)nc2ccccc21 | 8 (≈ 15.4 µM) | 8 (≈ 15.4 µM) | 64 (≈ 123 µM) | 128 (≈ 246 µM) | 32 (≈ 61.6 µM) | 64 (≈ 123 µM) | 16 (≈ 30.8 µM) | 4 (≈ 7.7 µM) | 256 (≈ 493 µM) | 64 (≈ 123 µM) | 64 (≈ 123 µM) | 32 (≈ 61.6 µM) | 512 (≈ 985 µM) | 8 (≈ 15.4 µM) | 128 (≈ 246 µM)
CCn1cc(C(=O)O)c(=O)c2cc(F)c(N3CCN(Cc4nc5ccccc5n4Cc4cccc(F)c4)CC3)cc21 | 4 (≈ 7.17 µM) | 128 (≈ 230 µM) | 32 (≈ 57.4 µM) | 1 (≈ 1.79 µM) | 128 (≈ 230 µM) | 8 (≈ 14.3 µM) | 64 (≈ 115 µM) | 64 (≈ 115 µM) | 8 (≈ 14.3 µM) | 2 (≈ 3.59 µM) | 2 (≈ 3.59 µM) | 32 (≈ 57.4 µM) | 128 (≈ 230 µM) | 64 (≈ 115 µM) | 128 (≈ 230 µM)
CCn1cc(C(=O)O)c(=O)c2cc(F)c(N3CCN(c4nc5ccccc5[nH]4)CC3)cc21 | 1 (≈ 2.3 µM) | 2 (≈ 4.59 µM) | 4 (≈ 9.19 µM) | 4 (≈ 9.19 µM) | 2 (≈ 4.59 µM) | 2 (≈ 4.59 µM) | 4 (≈ 9.19 µM) | 8 (≈ 18.4 µM) | 2 (≈ 4.59 µM) | 32 (≈ 73.5 µM) | 16 (≈ 36.7 µM) | 8 (≈ 18.4 µM) | 2 (≈ 4.59 µM) | 16 (≈ 36.7 µM) | 8 (≈ 18.4 µM)
O=C(O)c1cn(C2CC2)c2cc(N3CCN(Cc4nc5ccc(Br)cc5[nH]4)CC3)c(F)cc2c1=O | 8 (≈ 14.8 µM) | 8 (≈ 14.8 µM) | 4 (≈ 7.4 µM) | 16 (≈ 29.6 µM) | 16 (≈ 29.6 µM) | 1 (≈ 1.85 µM) | 16 (≈ 29.6 µM) | 2 (≈ 3.7 µM) | 4 (≈ 7.4 µM) | 4 (≈ 7.4 µM) | 2 (≈ 3.7 µM) | 4 (≈ 7.4 µM) | 64 (≈ 118 µM) | 16 (≈ 29.6 µM) | 32 (≈ 59.2 µM)
CCn1cc(C(=O)O)c(=O)c2cc(F)c(N3CCN(Cc4nc5ccccc5n4Cc4ccccc4Cl)CC3)cc21 | 4 (≈ 6.97 µM) | 2 (≈ 3.48 µM) | 0.125 (≈ 0.218 µM) | 16 (≈ 27.9 µM) | 16 (≈ 27.9 µM) | 1 (≈ 1.74 µM) | 0.5 (≈ 0.871 µM) | 4 (≈ 6.97 µM) | 0.5 (≈ 0.871 µM) | 1 (≈ 1.74 µM) | 0.5 (≈ 0.871 µM) | 2 (≈ 3.48 µM) | 8 (≈ 13.9 µM) | 0.5 (≈ 0.871 µM) | 16 (≈ 27.9 µM)
CCCCCCCCn1c(CN2CCN(c3cc4c(cc3F)c(=O)c(C(=O)O)cn4CC)CC2)nc2ccccc21 | 4 (≈ 7.12 µM) | 8 (≈ 14.2 µM) | 2 (≈ 3.56 µM) | 16 (≈ 28.5 µM) | 32 (≈ 57 µM) | 2 (≈ 3.56 µM) | 4 (≈ 7.12 µM) | 8 (≈ 14.2 µM) | 4 (≈ 7.12 µM) | 4 (≈ 7.12 µM) | 0.5 (≈ 0.89 µM) | 2 (≈ 3.56 µM) | 32 (≈ 57 µM) | 2 (≈ 3.56 µM) | 32 (≈ 57 µM)
